Assays:
[1] = refractive index (Na D-line) (dimensionless); details: 101.33 kPa, Liquid, Standard Abbe refractometry
[2] = for viscosity / speed of sound / mass density: 101.33 kPa, Liquid; for viscosity: Capillary tube (Ostwald / Ubbelohde) method; for speed of sound: Pulse-echo method; for mass density: Vibrating tube method; for Normal melting temperature: Crystal, DTA

CCCC[N+]1(CC)CCCC1.CCOS(=O)(=O)[O-] [1-butyl-1-ethylpyrrolidinium ethyl sulfate]
Details	mass density, [2] [kg/m3]	refractive index, [1]	speed of sound, [2] [m/s]	viscosity, [2] [mPa·s]
328.15 K	1118.72	1.4671	1602	105.5
333.15 K	1115.98	1.46581	1589.6	82.9
338.15 K	1113.02	1.46454	1577.2	66.8
343.15 K	1110.08	1.46315	1564.9	55.8

Details	Normal melting temperature [°C]
[2]	53

CCCC[N+]1(C)CCCC1.COS(=O)(=O)[O-] [1-butyl-1-methylpyrrolidinium methyl sulfate]
Details	mass density, [2] [kg/m3]	refractive index, [1]	speed of sound, [2] [m/s]	viscosity, [2] [mPa·s]
298.15 K	1166.69	1.47308	1741.6	467.5
303.15 K	1163.58	1.47184	1727.3	334.9
308.15 K	1160.46	1.47054	1713.6	245.6
313.15 K	1157.4	1.46924	1700.3	184.1
318.15 K	1154.4	1.46792	1687.4	139.2
323.15 K	1151.42	1.46661	1674.7	107.8
328.15 K	1148.42	1.46536	1662.2	86.1
333.15 K	1145.42	1.46406	1649.8	69.2
338.15 K	1142.44	1.46274	1637.6	56.4
343.15 K	1139.47	1.46143	1625.5	46.6

CCOS(=O)(=O)[O-].CC[N+]1(C)CCCC1 [1-ethyl-1-methylpyrrolidinium ethyl sulfate]
Details	mass density, [2] [kg/m3]	refractive index, [1]	speed of sound, [2] [m/s]	viscosity, [2] [mPa·s]
308.15 K	1189.67	1.47021	1750.2	172
313.15 K	1186.53	1.46891	1737.5	134.9
318.15 K	1183.41	1.4676	1725.2	107.5
323.15 K	1180.3	1.46632	1713	86.8
328.15 K	1177.22	1.46506	1701	71.2
333.15 K	1174.15	1.46378	1689.2	59.1
338.15 K	1171.11	1.46246	1677.3	49.5
343.15 K	1168.07	1.46116	1665.7	42

Details	Normal melting temperature [°C]
[2]	33

CC[N+](C)(CC)CC.COS(=O)(=O)[O-] [N,N-diethyl-N-methylethanaminium methyl sulfate]
Details	mass density, [2] [kg/m3]	refractive index, [1]	speed of sound, [2] [m/s]	viscosity, [2] [mPa·s]
308.15 K	1166.44	1.46191	1853.5	218.5
313.15 K	1163.4	1.46065	1839.7	165.6
318.15 K	1160.36	1.45939	1826.3	127.7
323.15 K	1157.34	1.45812	1813.1	100.3
328.15 K	1154.32	1.45687	1800	79.7
333.15 K	1151.33	1.45561	1787.1	64
338.15 K	1148.34	1.45402	1774.2	53.42
343.15 K	1145.36	1.45283	1761.5	44.92

Details	Normal melting temperature [°C]
[2]	33

From the NIST ThermoML archive (doi:10.1021/je1006357)
